Experimental data as given in patent US11008346B2, “Beta-lactamase inhibitors” (priority 2014, dated 2021).
Read-outs that look alike come from different tables or passages of the source.

Experiments:
[1] = tested on: K. pneumoniae A-1797 expressing KPC-2 and VIM-4; assay: broth microdilution MIC, K. pneumoniae KPC-2 and VIM-4; format: cell-based; details: Fixed Mero (meropenem) 4 μg/mL
How it was run: (§1)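 CAMHB; strains pre-grown 3-5 h. Test cpd 2-fold dilutions, 32→0.25 μg/mL final, + beta-lactam static 4 μg/mL. CLSI inoculation, 16-20 h at 37° C, visual MIC.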

KPC-2 β-lactamase = biological target: T1, KPC-2 β-lactamase (Klebsiella pneumoniae, UniProt Q9F663); assay: β-lactamase enzyme inhibition, KPC-2; format: biochemical
T1 construct: made in house; host or cells: E. coli BL21(DE3)
T1 sequence (Q9F663 25-293, looked up): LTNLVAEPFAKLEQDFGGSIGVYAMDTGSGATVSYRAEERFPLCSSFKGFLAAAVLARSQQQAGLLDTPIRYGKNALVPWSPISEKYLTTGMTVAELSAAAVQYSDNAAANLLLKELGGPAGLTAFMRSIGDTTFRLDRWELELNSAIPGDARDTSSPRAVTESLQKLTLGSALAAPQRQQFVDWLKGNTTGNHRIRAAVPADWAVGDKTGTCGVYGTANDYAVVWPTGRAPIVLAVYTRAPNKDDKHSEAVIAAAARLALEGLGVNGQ
How it was run: (§2)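 Absorbance-based kinetic read over 10 min after a 15 min, 37° C enzyme–inhibitor preincubation. Substrates differed by target: nitrocefin at 100 μM final (OXA-1, p99 AmpC; 486 nm), imipenem (KPC-2; 300 nm), cefotaxime (SHV-5; 260 nm). Percent inhibition per concentration gave the IC50.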

[2] = tested on: E. coli ESBL4 expressing CTX-M-15; assay: broth microdilution MIC, E. coli CTX-M-15; format: cell-based; details: Fixed CAZ (ceftazidime) 4 μg/mL
How it was run: as §1

[3] = biological target: T2, VIM-2 metallo β-lactamase (Pseudomonas aeruginosa, UniProt Q9K2N0); assay: β-lactamase enzyme inhibition, VIM-2; format: biochemical; details: Nitrocefin 100 μM, 486 nm; 15 min at 37° C. preincubation; read-out: IC50 VIM-2 (Class B)
T2 construct: made in house; host or cells: E. coli BL21(DE3)
How it was run: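 Inhibitor and enzyme sat together 15 min at 37° C before 100 μM nitrocefin (final) was added and 486 nm absorbance read for 10 min. IC50 is the concentration halving initial hydrolysis rate relative to uninhibited wells. Protein came from Q sepharose anion exchange at pH 7.5, repeated to >90% purity.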

SHV-5 β-lactamase = biological target: T3, SHV-5 β-lactamase (Klebsiella pneumoniae, UniProt P0A3M1); assay: β-lactamase enzyme inhibition, SHV-5; format: biochemical
T3 construct: made in house; host or cells: E. coli BL21(DE3)
T3 sequence (P0A3M1 22-286): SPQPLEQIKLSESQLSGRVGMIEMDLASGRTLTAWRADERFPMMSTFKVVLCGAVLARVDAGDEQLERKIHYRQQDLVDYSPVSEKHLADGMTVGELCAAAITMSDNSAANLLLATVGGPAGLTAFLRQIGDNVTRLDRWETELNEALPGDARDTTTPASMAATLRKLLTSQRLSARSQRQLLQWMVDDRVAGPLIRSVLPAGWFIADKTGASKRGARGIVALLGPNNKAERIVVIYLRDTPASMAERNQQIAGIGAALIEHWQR
How it was run: as §2

[4] = tested on: E. cloacae 144200 expressing Class C P99 AmpC; assay: broth microdilution MIC, E. cloacae P99; format: cell-based; details: Fixed CAZ (ceftazidime) 4 μg/mL
How it was run: as §1

p99 AmpC β-lactamase = biological target: T4, p99 AmpC β-lactamase (Enterobacter cloacae, UniProt P05364); assay: β-lactamase enzyme inhibition, p99 AmpC; format: biochemical
T4 construct: made in house; host or cells: E. coli BL21(DE3)
T4 sequence (P05364 21-381): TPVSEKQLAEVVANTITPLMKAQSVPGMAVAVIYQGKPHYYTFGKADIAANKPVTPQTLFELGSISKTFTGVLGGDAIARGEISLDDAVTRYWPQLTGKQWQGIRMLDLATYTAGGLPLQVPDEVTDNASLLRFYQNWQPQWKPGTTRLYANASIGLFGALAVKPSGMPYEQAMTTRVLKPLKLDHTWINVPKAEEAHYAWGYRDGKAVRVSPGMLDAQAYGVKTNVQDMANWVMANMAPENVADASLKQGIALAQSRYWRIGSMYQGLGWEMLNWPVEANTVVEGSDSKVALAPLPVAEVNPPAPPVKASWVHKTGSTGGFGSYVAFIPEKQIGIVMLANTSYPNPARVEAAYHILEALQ
How it was run: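 Inhibitor and enzyme were incubated 15 min at 37°C first. The enzyme was recombinant p99 AmpC, untagged, from E. coli BL21(DE3), purified by ion-exchange and size-exclusion chromatography.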

[5] = tested on: S. aureus MSSA-7 producing penicillinase PC-1; assay: broth microdilution MIC, S. aureus PC-1; format: cell-based; details: Fixed Pip (piperacillin) 4 μg/mL
From the text: (§3) To determine the ability of test compounds to potentiate the inhibition of the growth of bacterial strains that produce beta-lactamase enzymes, classic cell based broth microdilution MIC assays were employed. Six bacteria strains producing beta-lactamase enzymes were used: E. coli expressing the Class A Extended Spectrum Beta-Lactamase (ESBL) CTX-M-15, E. cloacae expressing the Class C P99, K. pneumoniae expressing the Class A carbapenemase KPC-3, P. aeruginosa expressing the Class B carbapenemase VIM-2, K pneumoniae expressing the class A carbapenemase KPC-2 and the class B carbapenemase VIM-4, and S. aureus producing the Class A penicillinase PC-1. The assay was conducted in Cation Adjusted Mueller Hinton Broth (CAMHB, BD #212322, BD Diagnostic Systems, Sparks, Md.). Bacteria strains were grown for 3-5 hours in CAMBH broth. Test compounds were added to a microtiter plate in 2-fold serial dilutions in CAMHB in a final concentration range of 32 μg/mL to 0.25 μg/ml. An overlay of CAMHB containing a Beta-lactam was added to the compounds at a final static concentration of 4 μg/ml. […] In addition to the titration of test compounds the MICs of a panel of control beta-lactams is also tested to ensure the strains are behaving consistently from test to test. Once the test compound and antibiotics are added the plates can be inoculated according to CLSI broth microdilution method. After inoculation the plates are incubated for 16-20 hours at 37° C., then the Minimal Inhibitory Concentration (MIC) of the test compound is determined visually.
(§4) Using the methodology described above, examples of the current invention were evaluated for their ability to inhibit the growth of β-lactamase-producing bacteria in the presence of a β-lactam antibiotic.
(§5) Representative results are shown in Table 4 where A represents an MIC of the fixed β-lactam antibiotic in the presence of >32 µg/mL of a β-lactamase inhibitor of exemplary compounds, B represents the MIC in the presence of between 8 and 32 µg/mL of a β-lactamase inhibitor of exemplary compounds, and C represents the MIC in the presence of ≤4 µg/mL of a β-lactamase inhibitor of exemplary compounds. NT=Not Tested.

OXA-1 β-lactamase = biological target: T5, OXA-1 β-lactamase (Escherichia coli, UniProt P13661); assay: β-lactamase enzyme inhibition, OXA-1; format: biochemical; details: Nitrocefin 100 μM, 486 nm; 15 min at 37° C. preincubation; read-out: IC50 OXA-1 (Class D)
T5 construct: made in house; host or cells: E. coli BL21(DE3)
T5 sequence (P13661 26-276): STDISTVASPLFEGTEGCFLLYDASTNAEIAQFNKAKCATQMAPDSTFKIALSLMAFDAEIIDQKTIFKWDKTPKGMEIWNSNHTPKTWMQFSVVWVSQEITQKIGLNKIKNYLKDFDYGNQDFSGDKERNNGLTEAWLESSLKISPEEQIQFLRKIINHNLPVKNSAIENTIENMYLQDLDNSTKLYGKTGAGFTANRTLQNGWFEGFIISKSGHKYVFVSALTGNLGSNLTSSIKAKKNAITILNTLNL
How it was run: as §2

[6] = tested on: K. pneumoniae 156319 expressing KPC-3; assay: broth microdilution MIC, K. pneumoniae KPC-3; format: cell-based; details: Fixed Mero (meropenem) 4 μg/mL
How it was run: as §1

[7] = tested on: P. aeruginosa Ps296 expressing VIM-2; assay: broth microdilution MIC, P. aeruginosa VIM-2; format: cell-based; details: Fixed Mero (meropenem) 4 μg/mL
From the text: as §3, §4, §5

[8] = imipenem substrate, 300 nm, 15 min at 37° C. preincubation, read-out: IC50 KPC-2 (Class A)

SMILES | MIC of exemplary compounds in presence of fixed β-lactams, K.P. A-1797 KPC-2 VIM-4 [1] | IC50 (KPC-2 β-lactamase; [8]) [nM] | MIC of exemplary compounds in presence of fixed β-lactams, E. coli ESBL4 CTX-M-15 [2] | IC50 [3] [nM] | IC50 (SHV-5 β-lactamase) [nM] | MIC of exemplary compounds in presence of fixed β-lactams, E. cl. 144200 p99 AmpC [4] | IC50 (p99 AmpC β-lactamase) [nM] | MIC of exemplary compounds in presence of fixed β-lactams, S. aureus MSSA-7 PC-1 [5] | IC50 (OXA-1 β-lactamase) [nM] | MIC of exemplary compounds in presence of fixed β-lactams, K.P. 156319 KPC-3 [6] | MIC of exemplary compounds in presence of fixed β-lactams, P. aerug. Ps296 VIM-2 [7] | IC50 (KPC-2 β-lactamase) [nM]
CC(C)CC(=O)N[C@H]1Cc2cccc(C(=O)O)c2OB1O [Example 6, (R)-2-Hydroxy-3-(3-methyl-butyrylamino)-3,4-dihydro-2H-benzo[e][1,2]oxaborinine-8-carboxylic acid] | A (A represents an MIC of the fixed β-lactam antibiotic in the presence of >32 g/mL of a β-lactamase inhibitor) | < 100 | C (C represents the MIC in the presence of ≤4 g/mL of a β-lactamase inhibitor) | 1000 to 10000 | < 100 | C (C represents the MIC in the presence of ≤4 g/mL of a β-lactamase inhibitor) | < 100 | C (C represents the MIC in the presence of ≤4 g/mL of a β-lactamase inhibitor) | < 100 | C (C represents the MIC in the presence of ≤4 g/mL of a β-lactamase inhibitor) | B (B represents the MIC in the presence of between 8 and 32 g/mL of a β-lactamase inhibitor) | –
N#CCCC(=O)N[C@H]1Cc2cccc(C(=O)O)c2OB1O [Example 8, (R)-3-(3-Cyano-propionylamino)-2-hydroxy-3,4-dihydro-2H-benzo[e][1,2]oxaborinine-8-carboxylic acid] | C (C represents the MIC in the presence of ≤4 g/mL of a β-lactamase inhibitor) | – | C (C represents the MIC in the presence of ≤4 g/mL of a β-lactamase inhibitor) | 100 to 1000 | < 100 | C (C represents the MIC in the presence of ≤4 g/mL of a β-lactamase inhibitor) | < 100 | C (C represents the MIC in the presence of ≤4 g/mL of a β-lactamase inhibitor) | < 100 | C (C represents the MIC in the presence of ≤4 g/mL of a β-lactamase inhibitor) | C (C represents the MIC in the presence of ≤4 g/mL of a β-lactamase inhibitor) | < 100
CC(=O)CCC(=O)N[C@H]1Cc2cccc(C(=O)O)c2OB1O [Example 10, (R)-2-Hydroxy-3-(4-oxo-pentanoylamino)-3,4-dihydro-2H-benzo[e][1,2]oxaborinine-8-carboxylic acid] | C (C represents the MIC in the presence of ≤4 g/mL of a β-lactamase inhibitor) | – | C (C represents the MIC in the presence of ≤4 g/mL of a β-lactamase inhibitor) | 100 to 1000 | < 100 | C (C represents the MIC in the presence of ≤4 g/mL of a β-lactamase inhibitor) | < 100 | C (C represents the MIC in the presence of ≤4 g/mL of a β-lactamase inhibitor) | < 100 | C (C represents the MIC in the presence of ≤4 g/mL of a β-lactamase inhibitor) | C (C represents the MIC in the presence of ≤4 g/mL of a β-lactamase inhibitor) | 100 to 1000
CC(Cl)(Cl)C(=O)N[C@H]1Cc2cccc(C(=O)O)c2OB1O [Example 11, (R)-3-(2,2-Dichloro-propionylamino)-2-hydroxy-3,4-dihydro-2H-benzo[e][1,2]oxaborinine-8-carboxylic acid] | A (A represents an MIC of the fixed β-lactam antibiotic in the presence of >32 g/mL of a β-lactamase inhibitor) | < 100 | C (C represents the MIC in the presence of ≤4 g/mL of a β-lactamase inhibitor) | 1000 to 10000 | < 100 | C (C represents the MIC in the presence of ≤4 g/mL of a β-lactamase inhibitor) | < 100 | C (C represents the MIC in the presence of ≤4 g/mL of a β-lactamase inhibitor) | < 100 | C (C represents the MIC in the presence of ≤4 g/mL of a β-lactamase inhibitor) | B (B represents the MIC in the presence of between 8 and 32 g/mL of a β-lactamase inhibitor) | –
O=C(/C=C/Cl)N[C@H]1Cc2cccc(C(=O)O)c2OB1O [Example 12, (R)-3-(3-Chloro-acryloylamino)-2-hydroxy-3,4-dihydro-2H-benzo[e][1,2]oxaborinine-8-carboxylic acid] | A (A represents an MIC of the fixed β-lactam antibiotic in the presence of >32 g/mL of a β-lactamase inhibitor) | < 100 | C (C represents the MIC in the presence of ≤4 g/mL of a β-lactamase inhibitor) | 100 to 1000 | < 100 | C (C represents the MIC in the presence of ≤4 g/mL of a β-lactamase inhibitor) | < 100 | C (C represents the MIC in the presence of ≤4 g/mL of a β-lactamase inhibitor) | < 100 | B (B represents the MIC in the presence of between 8 and 32 g/mL of a β-lactamase inhibitor) | B (B represents the MIC in the presence of between 8 and 32 g/mL of a β-lactamase inhibitor) | –
